From US20260209260A1, “VECTORIZED NHC IRIDIUM(III) COMPLEXES AND USE THEREOF IN PHOTODYNAMIC THERAPY AND/OR DIAGNOSTIC” (CENTRE NATIONAL DE LA RECHERCHE SCIENTIFIQUE, priority 2022, published 2026)
Like-named read-outs stand apart in the source and are kept apart here.

Legend:
[1] = Lipophilicity: octanol-water partition coefficient, shake-flask method
Method: The octanol-water partition coefficients (P) of all the complexes were determined using a shake-flask method^8. Water (100 mL, distilled after milli-Q purification) and n-octanol (100 mL, Sigma Aldrich, ACS spectrophotometric grade, ≥99%) were shaken together for 24 h to allow saturation of both phases. Stock solutions of the compounds ([…]) were prepared in the aqueous phase. Aliquots (2 mL) of each of these stock solutions were then added to an equal volume of the n-octanol phase. The resultant biphasic solution was mixed for 15 min and then centrifuged (3000 tr/min, 5 min) to separate the phases. The concentrations of the complex in the organic and aqueous phases were then determined using UV absorbance spectroscopy (260 nm). The blank is the water saturated with n-octanol. Log P was defined as logarithm of the ratio of the concentrations of the complex in the organic and aqueous phases (values reported are the means of at least three separated determinations).
The Log P values have been determined by a classical shake-flask method.

[2] = Luminescence emission spectra and quantum yield; format: physicochemical; details: room temperature; reference POPOP in hexane or rhodamine B in ethanol
Method: Fluorescence and phosphorescence emission spectra were obtained with a HORIBA JOBIN YVON, fluromax-4 and spectrofluorometer.
Luminescence quantum yields were measured according to the method of Demas and Crosby, on solution samples at RT. The quantum yield is defined as: […]
Where ΦP is the quantum yield of the sample, ΦR is the know quantum yield of the reference standard. […].
The luminescence spectra of vectorized iridium(III) complexes were determined in CH2Cl2 at room temperature (Table 3).

[3] = Emission lifetime measurement; format: physicochemical
Method: Fluorescence lifetime measurements were performed by an Edinburgh FLS920 spectrofluorimeter equipped with a TCC900 card for data acquisition in time-correlated single-photon counting experiments (0.5 ns time resolution) with a D2 lamp and an LDH—P-C-405 pulsed diode laser. The estimated experimental error is 2 nm on the band maximum (5% on the lifetime, 10% on the fluorescence quantum yield).
The emission lifetimes of biotin-vectorized complexes (I-a) to (I-l) range from 138 ns to 411 ns, among them, the lifetime of biotin-vectorized complexes (I-c), (I-e), (I-k) are 411, 224, and 322 ns respectively. The emission lifetimes of FTS-vectorized complexes (II-a) to (II-l) range from 167 ns to 486 ns, among them, the lifetime of FTS-vectorized complexes (II-c) and (II-k) are 319 and 486 ns respectively. The emission lifetimes of PSMA-vectorized complexes (III-a) to (III-l) are in the range of 159-649 ns, among them, the lifetime of complexes (III-a) and (III-k) were 248 and 649 ns, respectively. The emission lifetimes of Fc-vectorized complexes (IV-a) to (IV-l) are in the range of 178-228 ns.

[4] = UV/Vis absorption spectra; format: physicochemical; details: room temperature; for maximum absorption, lowest-lying bands in the visible region over 360 nm: CH2Cl2 or CH2Cl2/MeOH (1:1); for λmax (nm) ε (M^−1 · cm^−1): air-saturated CH2Cl2 or CH2Cl2/MeOH (1:1), 50 μM, ε in brackets, sh = shoulder
Method: UV/Vis absorption spectra were recorded at RT on solutions contained in quartz cuvettes (optical pathlength 1 cm, Hellma®) with a PerkinElmer® UV/VIS/NIR spectrophotometer Lambda 950 and a PerkinElmer® detector UV/VIS/NIR Accessory 2D Detector Module.

[5] = tested on: NIH-3T3 fibroblast cells (non-tumor); assay: Cell viability assay (MTT), dark and blue light; format: cell-based, Murine; details: for GI50: read-out: GI50; for Photosensitizing index (PI): NIH-3T3, dark vs blue light
Method: Cells were grown in humidified incubators at 37° C. in 5% CO2. Murine MC3T3 osteoblast and NIH-3T3 fibroblast cells-used as non-tumor cell models-were cultured in a-MEM medium and DMEM medium supplemented with 10% fetal bovine serum (FBS) and 1% Penicillin/Streptomycin (P/S) antibiotics, respectively. Human T24 bladder, MGHU3 bladder, Scaber bladder, A549 lung, MCF7 breast, MiaPaCa2 pancreas cancer cells were cultured in DMEM medium supplemented with 10% FBS and 1% P/S antibiotics. […] Human Hela cervix and HepG2 liver cancer cells were cultured EMEM medium supplemented with 10% FBS and 1% P/S antibiotics.
(§1) MTT reagent (3-(4,5-dimethylthiazol-2-yl)-2,5-diphenyltetrazolium bromide) was used to determine cell death as originally described by Mosmann. Briefly, cells were seeded from 5,000 to 10,000 cells/well in 24-well plates (1 mL) depending on the cell type and allowed to attach overnight. The complexes were prepared in DMSO. The concentration of the complexes was calculated based on the elemental composition of the complexes determined by the elemental analyses. All cell viability experiments were carried out with a fixed concentration of 0.1% (v/v) DMSO. After 72 h of treatment, cells were incubated at 37° C. and 5% CO2 with 25 μL of MTT solution (5 mg/ml; Sigma-Aldrich) in 24-well plates for 3 to 4 h. After solubilization with 500 μL of DMSO, formazan was quantified spectrophotometrically with a microplate reader at 570 nm absorbance (ClarioSTAR, BMG LabTech). […] All the results were calculated from data obtained in at least three independent experiments performed in triplicate.
(§2) Two sets of experiments were conducted in parallel for each complex to be studied:
(§3) 1. The cells were incubated with the different complexes (in the dark) for 72 h.
(§4) 2. The cells were incubated for 8 h with the different complexes (in the dark), then irradiated for 10 min, followed by an incubation in the dark up to 72 h.

[6] = tested on: PC-3 prostate cancer cells (PSMA-negative); assay: Cell viability assay (MTT), dark and blue light; format: cell-based, Human; details: for GI50: read-out: GI50; for Photosensitizing index (PI): PC3, dark vs blue light
Method: Cells were grown in humidified incubators at 37° C. in 5% CO2. Murine MC3T3 osteoblast and NIH-3T3 fibroblast cells-used as non-tumor cell models-were cultured in a-MEM medium and DMEM medium supplemented with 10% fetal bovine serum (FBS) and 1% Penicillin/Streptomycin (P/S) antibiotics, respectively. Human T24 bladder, MGHU3 bladder, Scaber bladder, A549 lung, MCF7 breast, MiaPaCa2 pancreas cancer cells were cultured in DMEM medium supplemented with 10% FBS and 1% P/S antibiotics. Human ASPC-1 pancreas, PC-3 prostate, DU-145 prostate, C4-2B prostate and 22rV1 prostate cancer cells were cultured in RPMI medium supplemented with 10% FBS and 1% P/S antibiotics. Human Hela cervix and HepG2 liver cancer cells were cultured EMEM medium supplemented with 10% FBS and 1% P/S antibiotics.
as §1
Irradiation was conducted using an in-house device, a series of blue light LEDs selected according to the absorption spectra of the compounds at 458 nm wavelength with an emitted power of 9.6 Watts. The light fluence was measured at 458 nm with an optical power meter Thorlabs PM100A at different distances between the cell layer and the light source (5 and 10 cm).
as §2, §3, §4

[7] = n-octanol/water, shake-flask, mean of at least three determinations

Structure (SMILES) | Log P [1, 7] | Log P [1] | ΦP emission phosphorescence quantum yield [2] [%] | τ1 emission lifetime [3] [ns] | maximum absorption, lowest-lying bands in the visible region over 360 nm [4] | λmax (nm) ε (M^−1 · cm^−1) [4] | GI50 ([5]; NIH-3T3, blue light) [µM] | Photosensitizing index (PI) [5] | GI50 ([5]; NIH-3T3, dark) [µM] | SI (vs NIH-3T3) ([6]; PC3, blue light) | GI50 ([6]; PC3, blue light) [µM] | SI (vs NIH-3T3) ([6]; PC3, dark) | Photosensitizing index (PI) [6] | GI50 ([6]; PC3, dark) [µM] | SI (vs NIH-3T3) PC-3 Blue ([6]; blue light 458 nm)
F[P-](F)(F)(F)(F)F.O=C(CCCC[C@@H]1SC[C@@H]2NC(=O)N[C@@H]21)NCCCn1cc[n+]2[c]1[Ir-3]13([c]4ccccc4-c4ccc(C(=O)O)c[n+]41)([c]1ccccc1-c1ccc(C(=O)O)c[n+]13)[n+]1ccccc1-2 [I-f] | −0.68 ± 0.07 |  |  |  |  |  |  |  |  |  |  |  |  |  | 
CC(C)=CCC/C(C)=C/CC/C(C)=C/CSc1ccccc1C(=O)NCCCn1cc[n+]2[c]1[Ir-3]13([c]4ccccc4-c4cccc[n+]41)([c]1ccccc1-c1cccc[n+]13)[n+]1ccccc1-2.F[P-](F)(F)(F)(F)F [II-a] |  | 1.70 ± 0.08 | 0.5 | 210 | around 380 nm | 308 (sh) (14540), 380 (4505) nm (M^−1 · cm^−1) |  |  |  |  |  |  |  |  | 
CC(C)=CCC/C(C)=C/CC/C(C)=C/CSc1ccccc1C(=O)NCCCn1cc[n+]2[c]1[Ir-3]13([c]4cc(C)ccc4-c4cccc[n+]41)([c]1cc(C)ccc1-c1cccc[n+]13)[n+]1ccccc1-2.F[P-](F)(F)(F)(F)F [II-b] |  | 1.68 ± 0.02 | 0.4 | 167 | around 380 nm | 306 (sh) (15875), 382 (4560) nm (M^−1 · cm^−1) |  |  |  |  |  |  |  |  | 
COC(=O)c1ccc2[c](c1)[Ir-3]13([c]4cc(C(=O)OC)ccc4-c4cccc[n+]41)([c]1n(CCCNC(=O)c4ccccc4SC/C=C(\C)CC/C=C(\C)CCC=C(C)C)cc[n+]1-c1cccc[n+]13)[n+]1ccccc1-2.F[P-](F)(F)(F)(F)F [II-c] |  | 1.08 ± 0.01 | 4.6 | 319 |  | 310 (sh) (21710), 355 (5105), 398 (3925) nm (M^−1 · cm^−1) |  |  |  |  |  |  |  |  | 
COC(=O)c1cccc2[c]1[Ir-3]13([c]4c(C(=O)OC)cccc4-c4cccc[n+]41)([c]1n(CCCNC(=O)c4ccccc4SC/C=C(\C)CC/C=C(\C)CCC=C(C)C)cc[n+]1-c1cccc[n+]13)[n+]1ccccc1-2.F[P-](F)(F)(F)(F)F [II-d] |  | 1.40 ± 0.02 | 0.9 | 201 | around 370 nm | 372 (4535) nm (M^−1 · cm^−1) |  |  |  |  |  |  |  |  | 
F[P-](F)(F)(F)(F)F.O=C(NCCCn1cc[n+]2[c]1[Ir-3]13([c]4ccccc4-c4cccc[n+]41)([c]1ccccc1-c1cccc[n+]13)[n+]1ccccc1-2)[c-]1cccc1.[Fe+2].c1cc[cH-]c1 [IV-a] | 0.61 ± 0.07 |  | 0.04 | 197 | around 380 nm | 304 (sh) (25840), 381 (8080) nm (M^−1 · cm^−1) | 6.7 | 4.2 | 28.2 | 2.8 | 2.4 | 9.9 | 1.2 |  | 
Cc1ccc2[c](c1)[Ir-3]13([c]4cc(C)ccc4-c4cccc[n+]41)([c]1n(CCCNC(=O)[c-]4cccc4)cc[n+]1-c1cccc[n+]13)[n+]1ccccc1-2.F[P-](F)(F)(F)(F)F.[Fe+2].c1cc[cH-]c1 [IV-b] | 1.63 ± 0.02 |  | 0.03 | 197 | around 380 nm | 308 (sh) (27820), 379 (8620) nm (M^−1 · cm^−1) | 13.2 | 1.1 | 13.9 |  |  | 16.4 | 2.2 | 0.85 | 33.8
COC(=O)c1ccc2[c](c1)[Ir-3]13([c]4cc(C(=O)OC)ccc4-c4cccc[n+]41)([c]1n(CCCNC(=O)[c-]4cccc4)cc[n+]1-c1cccc[n+]13)[n+]1ccccc1-2.F[P-](F)(F)(F)(F)F.[Fe+2].c1cc[cH-]c1 [IV-c] |  | 0.72 ± 0.03 | 0.04 | 195 |  | 304 (sh) (28570), 353 (sh) (7050), 399 (5315), 427 (sh) (3660) nm (M^−1 · cm^−1) | 9.3 | 3.5 |  | 10.7 |  | 2.2 | 16.8 |  | 
COC(=O)c1cccc2[c]1[Ir-3]13([c]4c(C(=O)OC)cccc4-c4cccc[n+]41)([c]1n(CCCNC(=O)[c-]4cccc4)cc[n+]1-c1cccc[n+]13)[n+]1ccccc1-2.F[P-](F)(F)(F)(F)F.[Fe+2].c1cc[cH-]c1 [IV-d] | 0.77 ± 0.01 |  | 0.03 | 228 | around 370 nm | 335 (sh) (9725), 372 (6540) nm (M^−1 · cm^−1) |  | 1.9 |  | 12.0 | 1.3 | 1.3 | 17.0 | 21.6 | 
F[P-](F)(F)(F)(F)F.O=C(O)c1ccc2[n+](c1)[Ir-3]13([c]4ccccc4-2)([c]2ccccc2-c2ccc(C(=O)O)c[n+]21)[c]1n(CCCNC(=O)[c-]2cccc2)cc[n+]1-c1cccc[n+]13.[Fe+2].c1cc[cH-]c1 [IV-f] | 1.08 ± 0.03 |  | 0.12 | 202 |  | 304 (sh) (22560), 410 (4150) nm (M^−1 · cm^−1) |  |  |  |  |  |  |  |  | 
